Patent US20160345582A1, “HERBICIDE COMPOSITIONS FOR WEED CONTROL” (Valent U.S.A., Corporation, priority 2015, published 2016)

Legend:
[1] = system: Ivyleaf Morningglory; assay: Field test 2011 (Example 1), post emergence weed control in corn; format: in vivo, Ipomoea hederacea; details: Study 1; 30 DAT; topramezone 18.4, pyroxasulfone 90 g ai/ha; applied at V5 corn stage, weeds 4 to 10 inches
Method: (§1) In 2011, two field tests were conducted using similar protocols. Both studies were completed in Indiana, United States. Weeds were 4 to 10 inches in height at time of application. Untreated checks were included in the trial, however pyroxasulfone alone is not effective for post emergence weed control and was therefore not included as a standalone treatment. Roundup Ready corn (Zea maize) was used in the test as the crop plant utilizing a natural population of weeds. All of the treatments contained non-ionic surfactant at 0.25% v/v and were applied at the V5 corn growth stage. Applications were made utilizing a hand boom sprayer with application area for each treatment equating to 10 feet by 200 feet.
(§2) Topramezone was administered at 18.4 grams/hectare. Pyroxasulfone was administered at 90 grams/hectare.
(§3) Thirty days after treatment (“DAT”) readings were taken to determine the survival of Ivyleaf Morningglory, Yellow Nutsedge, Velvetleaf and Annual Grass. Survival ratings were taken by counting the number of alive and dead plants at the time of the reading. All data was analyzed using Bartlett's test and with p value of […] for determining significance of the results. The Effect of Topamezone and Pyroxasulfone on Weeds (% Control).”

[2] = system: Yellow Nutsedge; assay: as above; format: in vivo, Cyperus esculentus; details: Study 1; 30 DAT; topramezone 18.4, pyroxasulfone 90 g ai/ha; applied at V5 corn stage, weeds 4 to 10 inches
Method: as §1, §2, §3

[3] = system: Velvetleaf; assay: as above; format: in vivo, Abutilon theophrasti; details: Study 2; 30 DAT; topramezone 18.4, pyroxasulfone 90 g ai/ha; applied at V5 corn stage, weeds 4 to 10 inches
Method: as §1, §2, §3

[4] = system: Annual Grass; assay: as above; format: in vivo; details: Study 2; 30 DAT; topramezone 18.4, pyroxasulfone 90 g ai/ha; applied at V5 corn stage, weeds 4 to 10 inches
Method: as §1, §2, §3

[5] = system: Waterhemp; assay: Field test 2013 (Example 2), post emergence weed control in corn; format: in vivo, Amaranthus tuberculatus; details: 30 DAT, applied at V5 corn stage
[6] = system: Common Ragweed; assay: as above; format: in vivo, Ambrosia artemisiifolia; details: Study 4; 30 DAT; topramezone 18.4, pyroxasulfone 90 g ai/ha; applied at V5 corn stage
[7] = system: Giant Foxtail; assay: as above; format: in vivo, Setaria faberi; details: Study 5; 30 DAT; topramezone 18.4, pyroxasulfone 90, atrazine 840 g ai/ha; applied at V5 corn stage
[8] = system: Foxtail; assay: as above; format: in vivo, Setaria species; details: Study 6; 30 DAT; topramezone 18.4, pyroxasulfone 90 g ai/ha; applied at V5 corn stage
[9] = system: Palmer Amaranth; assay: as above; format: in vivo, Amaranthus palmeri; details: Study 7; 30 DAT; topramezone 18.4, pyroxasulfone 90 g ai/ha; applied at V5 corn stage
[10] = system: Giant Ragweed; assay: as above; format: in vivo, Ambrosia trifida; details: Study 7; 30 DAT; topramezone 18.4, pyroxasulfone 90 g ai/ha; applied at V5 corn stage
[11] = system: Yellow Nutsedge; assay: as above; format: in vivo, Cyperus esculentus; details: Study 7; 30 DAT; topramezone 18.4, pyroxasulfone 90 g ai/ha; applied at V5 corn stage
[12] = system: Barnyardgrass; assay: as above; format: in vivo, Echinochloa crus-galli; details: 30 DAT, topramezone 18.4, pyroxasulfone 90 g ai/ha, applied at V5 corn stage
[13] = system: Broadleaf signalgrass; assay: as above; format: in vivo, Brachiaria platyhylla; details: Study 7; 30 DAT; topramezone 18.4, pyroxasulfone 90 g ai/ha; applied at V5 corn stage
[14] = system: Velvetleaf; assay: as above; format: in vivo, Abutilon theophrasti; details: Study 9; 30 DAT; topramezone 18.4, pyroxasulfone 90 g ai/ha; applied at V5 corn stage
[15] = system: Fall Panicum; assay: as above; format: in vivo; details: Study 3; 30 DAT; mesotrione 105, pyroxasulfone 90 g ai/ha; applied at V5 corn stage

| Structure (SMILES) | % Control Ivyleaf Morningglory [1] | % Control Yellow Nutsedge [2] | % Control Velvetleaf [3] | % Control Annual Grass [4] | % Control Waterhemp ([5]; Study 6, topramezone 18.4, pyroxasulfone 90 g ai/ha) | % Control Waterhemp ([5]; Study 8, topramezone 18.4, pyroxasulfone 90 g ai/ha) | % Control Common Ragweed [6] | % Control Giant Foxtail [7] | % Control Foxtail [8] | % Control Palmer Amaranth [9] | % Control Giant Ragweed [10] | % Control Yellow Nutsedge [11] | % Control Barnyardgrass ([12]; Study 7) | % Control Barnyardgrass ([12]; Study 9) | % Control Broadleaf signalgrass [13] | % Control Velvetleaf [14] | % Control Fall Panicum [15] | % Control Waterhemp ([5]; Study 3, mesotrione 105, pyroxasulfone 90 g ai/ha) |
| --- | --- | --- | --- | --- | --- | --- | --- | --- | --- | --- | --- | --- | --- | --- | --- | --- | --- | --- |
| Cc1c(C(=O)c2cnn(C)c2O)ccc(S(C)(=O)=O)c1C1=NOCC1 [Topramezone, [3-(4,5-dihydro-1,2-oxazol-3-yl)-4-mesyl-o-tolyl](5-hydroxy-1-methylpyrazol-4-yl)methanone] | 68% | 73% | 95% | 33% | 94% | 90% | 94% | 87% | 98% | 93% | 91% | 60% | 80% | 93% | 90% | 90% | – | – |
| CS(=O)(=O)c1ccc(C(=O)C2C(=O)CCCC2=O)c([N+](=O)[O-])c1 [Mesotrione, 2[4-(methylsulfonyl)-2-nitrobenzoyl]cyclohexane-1,3-dione] | – | – | – | – | – | – | – | – | – | – | – | – | – | – | – | – | 98% | 80% |
